How the values were obtained:
[1] = system: NCI-H358 cells (Kras G12C mutation); experiment: Cell proliferation inhibition experiment, 3D model, CellTiter-Glo (NCI-H358); format: cell-based, human; conditions: NCI-H358, 3D sphere plate, 5 days, 2% FBS
Experimental: (§1) NCI-H358 was a human non-small cell lung cancer cell line with Kras G12C mutation, cultured in 10% FBS RPMI-1640 medium; A549 was a human lung adenocarcinoma cell line with Kras G12S mutation, cultured in 10% FBS F-12K medium. The cells in the logarithmic growth phase was taken, digested with trypsin EDTA, collected and counted, and H358 was adjusted to 1.8E4 cells/ml using 2% FBS RPMI-1640 medium, and A549 was adjusted to 8.9E3 cells/ml using 2% FBS F-12K medium; 800 (45 μl) H358 or 400 (45 μl) A549 cells were seeded in a 384-well sphere plate respectively, cultured overnight to establish a 3D cell model. DMSO was used to prepare 1000× compound 3.16-fold gradient concentration stock solution, and 2% FBS medium was used to dilute 100-fold to 10× compound stock solution. On the second day after cell seeding, 5 μl 10× compound stock solution was added to each cell culture well, the final concentration was 1×, and DMSO content was 0.1%. DMSO was used as the experimental control (control) and 2% FBS medium as the blank control (blank). After the compound and cells were added and cultured for 5 days, 25 μl CellTiter-Glo working solution was added to each well, mixed at 400 rpm and incubated for 30 minutes. After 30 minutes at room temperature, 40 μl of the mixture was transferred to a 384-well plate with a non-transparent white bottom, the luminescence chemiluminescence value was read, and the cells proliferation inhibition rate IR (%)=(RLU control-RLU compound)/(RLU control-RLU blank)×100% was calculated, Prism 6 four-parameter method was used to fit the compound's gradient dilution concentration and the corresponding cell proliferation inhibition rate, and the IC50 value was calculate.

[2] = system: A549 cells (Kras G12S mutation); experiment: Cell proliferation inhibition experiment, 3D model, CellTiter-Glo (A549); format: cell-based, human; conditions: A549, 3D sphere plate, 5 days, 2% FBS
Experimental: as §1

| IC50 ([1]; Homo sapiens, NCI-H358, 120 h) | IC50 ([2]; Homo sapiens, A549, 120 h) | IC50 [1] | IC50 [2] | SMILES |
| --- | --- | --- | --- | --- |
| 2 nM | > 10000 nM | – | – | C=CC(=O)N1CCN2c3nc(=O)n(-c4c(C)ccnc4C(C)C)c4nc(-c5c(O)cccc5F)c(Cl)c(c34)OC[C@H]2C1 [Compound Z23, (5aR)-7-acryloyl-3-chloro-2-(2-fluoro-6-hydroxyphenyl)-12-(2-isopropyl-4-methylpyridin-3-yl)-5,5a,6,7,8,9-hexahydro-4-oxo-1,7,9a,10,12-pentazabenzo[4,5] cyclohepta[1,2,3-de]naphthalen-11 (12H)-one] |
| 283 nM | > 10000 nM | – | – | C=CC(=O)N1CCN2c3nc(=O)n(C4CC4)c4cc(-c5c(C)ccc6[nH]ncc56)cc(c34)OCCC2C1 (stereo not drawn) [Compound Z21, 2-acryloyl-8-cyclopropyl-10-(5-methyl-1H-indazol-4-yl)-1,3,4,13,14,14a-hexa hydro-2H-pyrazino[1′,2′:5,6][1,5]oxazolidine[4,3,2-de]quinazolin-7 (8H)-one] |
| – | – | 36 nM | > 10000 nM | C=CC(=O)N1CCN2c3nc(=O)n(-c4c(C)ccnc4C(C)C)c4cc(-c5c(O)cccc5F)cc(c34)OC[C@@H]2C1 [Compound Z15, (S)-2-acryloyl-10-(2-fluoro-6-hydroxyphenyl)-8-(2-isopropyl-4-methylpyridin-3-yl)-1,2,3,4,13,13a-hexahydropyrazino[2′,1′:3,4][1,4]oxazepine[5,6,7-de]quinazolin-7 (8H)-one] |
| 204 nM | > 10000 nM | – | – | C=CC(C)N1CCN2c3nc(=O)n(-c4c(C)ccnc4C(C)C)c4nc(-c5cnccc5C)c(Cl)c(c34)OC[C@@H]2C1 (stereo partly drawn) [Compound Z81] |
| 22 nM | > 10000 nM | – | – | C=CC(=O)N1CCN2c3nc(=O)n(-c4c(C)ccnc4C(C)C)c4nc(-c5cccc(F)c5)c(Cl)c(c34)OC[C@@H]2C1 [Compound Z48] |
| 118 nM | > 10000 nM | – | – | C=CC(=O)N1CCN2c3nc(=O)n(-c4c(C)ccnc4C(C)C)c4cc(-c5c(C)ccc6[nH]ncc56)cc(c34)OCCC2C1 (stereo not drawn) [Compound Z22] |
| 2 nM | 7450 nM | – | – | C=CC(=O)N1CCN2c3nc(=O)n(-c4ccccc4C(C)C)c4cc(-c5c(C)ccc6[nH]ncc56)c(Cl)c(c34)OCC2C1 (stereo not drawn) [Compound Z1] |
| 66 nM | > 10000 nM | – | – | C=CC(=O)N1CCN2c3nc(=O)n(-c4c(C)ccnc4C(C)C)c4nc(-c5cc(F)cc(F)c5O)c(Cl)c(c34)OC[C@@H]2C1 [Compound Z54] |
| 11 nM | > 10000 nM | – | – | C=CC(=O)N1CCN2c3nc(=O)n(-c4c(C)ccnc4C(C)C)c4nc(-c5c(F)cc(F)cc5F)c(Cl)c(c34)OC[C@@H]2C1 [Compound Z56] |
| 254 nM | > 10000 nM | – | – | C=CC(=O)N1CCN2c3nc(=O)n(-c4c(C)ccnc4C(C)C)c4nc(-c5cccnc5C)c(Cl)c(c34)OC[C@@H]2C1 [Compound Z78] |
| 164 nM | > 10000 nM | – | – | C=CC(=O)N1CCN2c3nc(=O)n(-c4c(C)ccnc4C(C)C)c4cc(-c5ncccc5F)c(Cl)c(c34)OC[C@@H]2C1 [Compound Z35] |
| – | – | 68 nM | 46400 nM | C=CC(=O)N1CCN2c3nc(=O)n(-c4c(C)ccnc4C(C)C)c4cc(-c5c(C)ccc6[nH]ncc56)cc(c34)OC[C@@H]2C1 [Compound Z19, (S)-2-acryloyl-8-(2-isopropyl-4-methylpyridin-3-yl)-10-(5-methyl-1H-indazol-4-yl)-1,2,3,4,13,13a-hexahydropyrazino[2′,1′:3,4][1,4]oxazepine[5,6,7-de]quinazolin-7 (8H)-one] |
| 184 nM | > 10000 nM | – | – | C=CC(=O)N1CCN2c3nc(=O)n(C4CC4)c4cc(-c5c(O)cccc5F)cc(c34)OCCC2C1 (stereo not drawn) [Compound Z28] |
| 308 nM | 23500 nM | – | – | C=CC(=O)N1CCN2c3nc(=O)n(CC(C)C)c4cc(-c5c(O)cccc5F)c(Cl)c(c34)OC[C@@H]2C1 [Compound Z32] |
| 95 nM | > 10000 nM | – | – | C=CC(=O)N1CCN2c3nc(=O)n(-c4c(C)ccnc4C(C)C)c4nc(-c5ccncc5F)c(Cl)c(c34)OC[C@@H]2C1 [Compound Z69] |
| 107 nM | 12400 nM | – | – | C=CC(=O)N1CCN2c3nc(=O)n(-c4c(C)ccnc4C(C)C)c4cc(-c5c(C)ccc6[nH]ncc56)cc(c34)OC[C@H]2C1 [Compound Z18, (R)-2-acryloyl-8-(2-isopropyl-4-methylpyridin-3-yl)-10-(5-methyl-1H-indazol-4-yl)-1,2,3,4,13,13a-hexahydropyrazino[2′,1′:3,4][1,4]oxazepine[5,6,7-de]quinazolin-7 (8H)-one] |
| 6 nM | > 10000 nM | – | – | C=CC(=O)N1CCN2c3nc(=O)n(-c4c(C)ccnc4C(C)C)c4nc(-c5ccccc5C(C)C)c(Cl)c(c34)OC[C@@H]2C1 [Compound Z62] |
| 50 nM | > 10000 nM | – | – | C=CC(=O)N1CCN2c3nc(=O)n(-c4c(C)ccnc4C(C)C)c4nc(-c5ccc(F)cc5)c(Cl)c(c34)OC[C@@H]2C1 [Compound Z50] |
| 42 nM | > 10000 nM | – | – | C=CC(=O)N1CCN2c3nc(=O)n(-c4c(C)ccnc4C(C)C)c4nc(-c5c(F)cccc5C(F)(F)F)c(Cl)c(c34)OC[C@@H]2C1 [Compound Z70] |
| – | – | 94 nM | 24200 nM | C=CC(=O)N1CCN2c3nc(=O)n(-c4c(C)ccnc4C(C)C)c4nc(-c5c(O)cccc5F)cc(c34)OC[C@H]2C1 [Compound Z25, (R)-7-acryloyl-2-(2-fluoro-6-hydroxyphenyl)-12-(2-isopropyl-4-methylpyridin-3-yl)-5,5a,6,7,8,9-hexahydro-4-oxo-1,7,9a,10,12-pentazabenzo[4,5]cyclohepta[1,2,3-de]naphthalen-11 (12H)-one] |

Continued, molecule first:

| SMILES | IC50 ([1]; Homo sapiens, NCI-H358, 120 h) | IC50 ([2]; Homo sapiens, A549, 120 h) | IC50 [1] | IC50 [2] |
| --- | --- | --- | --- | --- |
| C=CC(=O)N1CCN2c3nc(=O)n(-c4c(C)ncnc4C(C)C)c4cc(-c5c(C)ccc6[nH]ncc56)c(Cl)c(c34)OC[C@@H]2C1 (single isomer, unassigned) [Compound Z45-4] | – | – | 65 nM | > 10000 nM |
| C=CC(=O)N1CCN2c3nc(=O)n(-c4c(C)ncnc4C(C)C)c4cc(-c5c(C)ccc6[nH]ncc56)c(Cl)c(c34)OC[C@@H]2C1 (single isomer, unassigned) [Compound Z45-1] | – | > 10000 nM | 3 nM | – |
| C=CC(=O)N1CCN2c3nc(=O)n(-c4c(C)ccnc4C(C)C)c4cc(-c5c(O)cccc5F)c(Cl)c(c34)OC[C@H]2C1 (single isomer, unassigned) [Compound Z29-3] | – | – | 165 nM | > 10000 nM |
| C=CC(=O)N1CCN2c3nc(=O)n(-c4c(C)ccnc4C(C)C)c4cc(-c5c(C)ccc6[nH]ncc56)cc(c34)OC[C@@H]2C1 (atropisomer, axis not shown) [Compound Z19-1] | – | – | 321 nM | 6990 nM |
| [2H]C([2H])([2H])Oc1cccc(F)c1-c1nc2c3c(nc(=O)n2-c2c(C)ccnc2C(C)C)N2CCN(C(=O)C=C)C[C@@H]2COc3c1F (single isomer, unassigned) [Compound Z100-2] | – | – | 31 nM | > 10000 nM |
| C=CC(=O)N1CCN2c3nc(=O)n(-c4c(C)ccnc4C(C)C)c4nc(-c5c(O)cccc5F)cc(c34)OC[C@H]2C1 (single isomer, unassigned) [Compound Z25-1] | – | – | 46 nM | > 10000 nM |
| C=CC(=O)N1CCN2c3nc(=O)n(-c4c(C)ccnc4C(C)C)c4nc(-c5cccc(C(F)(F)F)c5F)c(Cl)c(c34)OC[C@@H]2C1 (atropisomer, axis not shown) [Compound Z57-1] | – | – | 111 nM | > 10000 nM |
| C=CC(=O)N1CCN2c3nc(=O)n(-c4c(C#N)cnn4C(C)(C)C)c4nc(-c5ccccc5F)c(Cl)c(c34)OC[C@H]2C1 (single isomer, unassigned) [Compound Z109-2] | – | – | 106 nM | 9780 nM |
| C=CC(=O)N1CCN2c3nc(=O)n(-c4c(C)ccnc4C(C)C)c4nc(-c5c(O)cccc5F)cc(c34)OC[C@H]2C1 (atropisomer, axis not shown) [Compound Z25-2] | – | – | 281 nM | > 10000 nM |
| C=CC(=O)N1CCN2c3nc(=O)n(-c4c(C)ccnc4C(C)C)c4nc(-c5c(O)cccc5F)c(Cl)c(c34)OC[C@H]2C1 (single isomer, unassigned) [Compound Z23-2] | – | – | 21 nM | > 10000 nM |
| C=CC(=O)N1CCN2c3nc(=O)n(-c4c(C)ccnc4C(C)C)c4nc(-c5ccccc5F)c(Cl)c(c34)OC[C@@H]2C1 (single isomer, unassigned) [Compound Z46-1] | – | 8360 nM | 89 nM | – |
| C=CC(=O)N1CCN2c3nc(=O)n(CC4CC4)c4cc(-c5c(O)cccc5F)c(Cl)c(c34)OC[C@@H]2C1 [Compound Z37-2] | 276 nM | 29500 nM | – | – |
| C=CC(=O)N1CCN2c3nc(=O)n(-c4c(C)ccnc4C(C)C)c4nc(-c5ccc(F)cc5F)c(Cl)c(c34)OC[C@@H]2C1 (atropisomer, axis not shown) [Compound Z49-2] | – | – | 113 nM | > 10000 nM |

— patent US20220251109A1, “OXAAZAQUINAZOLINE-7(8H)-KETONE COMPOUND, PREPARATION METHOD THEREFOR AND PHARMACEUTICAL APPLICATION THEREOF” (GENFLEET THERAPEUTICS (SHANGHAI) INC., priority 2019, published 2022)
